{
  "source": "paper PMC9238271",
  "about": "“The quorum sensing peptide EntF* promotes colorectal cancer metastasis in mice: a new factor in the host-microbiome interaction” (BMC Biology, 2022)",
  "key": {"[1]": {"assay": "EntF production in germ-free mice: EntF* in colon content and serum", "format": "in vivo, germ-free female C57BL6 mice", "method": "Fifty microliters of serum were mixed with 150 μL 0.5% formic acid in acetonitrile. After sonication for 5 min, samples were vortexed for 5 s, then heated for 30 s at 100 °C. The solution was vortexed and centrifuged for 20 min at 20,000g at 4 °C. The supernatant was purified using solid phase extraction (SPE) on HyperSep C18 plates (Thermo Fisher Scientific, Belgium), previously conditioned with acetonitrile and equilibrated with 75% acetonitrile in water, containing 0.375% formic acid. After loading 150 μL of each sample, 120 μL eluent were collected and organic solvents evaporated using nitrogen (1 L/min) for 5 min. The resulting samples were further diluted with 30 μL of BSA-based anti-adsorption solution, and analyzed by LC-MS.\nFor EntF and EntF* colon content analysis, 50 mg of colon content were suspended in 100 μL of a 2% hydrochloric acid solution, vortexed and sonicated for 30 s. The suspension was centrifuged for 1 min at 3000g, and 50 μL of the supernatant was heated at 100 °C for 1 min and cooled on ice for 1 min. Samples were centrifuged again for 1 min at 10,000g, and 30 μL of supernatant was added to a 900 μL of a 3% DMSO solution in acetonitrile acidified with 0.1% formic acid (equilibration solution). Nine hundred microliters of the diluted samples was loaded on a HILIC amide SPE MonoSpin column previously conditioned with acetonitrile and equilibrated with the equilibration solution. Samples were eluted using a mixture of 75/20/5 (V/V/V) H2O/acetonitrile/DMSO acidified with 0.1% formic acid.\n(§1) EntF* was detected and quantified on a Waters Acquity® UPLC H-class system, connected to a Waters Xevo™ TQ-S triple quadrupole mass spectrometer with electrospray ionization (operated in positive ionization mode). Autosampler tray and column oven were kept at 10 ± 5 °C and 60 ± 5 °C, respectively. Chromatographic separation was achieved on a Waters Acquity® UPLC BEH Peptide C18 column (300 Å, 1.7 μm, 2.1 mm × 100 mm). The mobile phases consisted of 93/2/5 water/acetonitrile/DMSO (V/V/V) containing 0.1% formic acid (mobile phase A) and 2/93/5 water/acetonitrile/DMSO (V/V/V) containing 0.1% formic acid (mobile phase B), and the flow rate was set to 0.5 mL/min. A 10-μL aliquot from each sample was injected. The gradient program started with 80% of mobile phase A for 1 min, followed by a linear gradient to 40% of mobile phase A for 3.5 min. Gradient was then changed to 14.2% mobile phase A at 5 min, followed by a 1 min equilibration, before starting conditions were applied. EntF* retention time was between 4.25 and 4.45 min.\nMice were obtained from the Ghent Germfree and Gnotobiotic mouse facility (LA1400637), maintained in a sterile environment under controlled conditions (light–dark cycle with light from 7:00 h to 17:00 h, temperature 21–25 °C, and humidity 45–65%). Twelve germ-free female C57BL6 mice were divided into 3 groups and each group (n = 4) was kept in a separate cage. At day 0, the placebo group was treated with the cell medium (BHI), the control group received a mixture of 3 EntF-negative E. faecium strains (NCIMB 10415; W54 and LMG S-28935 each 10^8 CFU per strain) suspended in 300 μL of BHI, while the test group received a mixture of 3 EntF-producing E. faecium strains (LMG 23236; T-110 and ATCC 8459 each 10^8 CFU/strain) suspended in 300 μL of BHI. […] Serum samples were stored at − 80 °C and subsequently analyzed for the presence of EntF* using LC1-MS1. […] Samples were further analyzed for the presence of EntF* using LC1-MS1."}, "[2]": {"assay": "In vitro metabolization of EntF: formation of EntF* in colon tissue homogenate", "format": "in vitro ADME, C57BL/6 female mice", "method": "Krebs-Henseleit (KH) buffer (Sigma-Aldrich, Belgium) was prepared by dissolving the powdered medium in 900 mL water while stirring. Once the powder was completely dissolved, 0.3790 g CaCl2•2H2O and 2.098 g NaHCO3 were added to the solution. NaOH or HCl was used to adjust the pH to 7.4. The solution was brought to final volume (1000 mL) with ultrapure water.\nFor the preparation of colon tissue homogenates for EntF in vitro metabolization study, colons were collected from two untreated C57BL/6 female mice after cervical dislocation. After cleaning and rinsing the organs with ice-cold KH buffer, colons were cut into small pieces and transferred into 15 mL tubes containing 5 mL ice-cold KH buffer. Colon tissues were homogenized for 1 min. Larger particles were allowed to sediment for about 30 min at 5 °C, and then approximately 2 mL of the middle layer of each tube was transferred into a 2 mL Eppendorf tube and stored at − 35 °C. Before use, the homogenate was diluted to a final protein concentration of 0.6 mg/mL.\nTo avoid the absorption of EntF* onto plasticware and glassware, all tubes and containers were coated with a BSA-based anti-adsorption solution before use.\nFive hundred microliters of tissue homogenate were mixed with 400 μL of pre-warmed KH buffer. Then, 100 μL of KH buffer (blank) or 1 mg/mL EntF peptide solution (test) were added to the diluted homogenate and incubated at 37 °C. […] After centrifugation at 16,000g for 30 min at 5 °C, supernatants were analyzed by LC1-MS1 for EntF* quantification.\nas §1\nAn optimized capillary voltage of 3.00 kV, a cone voltage of 20.00 V, and a source offset of 50.0 V were used. Acquisition was done in the MRM mode. The selected precursor ion for EntF* was m/z 865.7 with two selected product ions at m/z 202.08 (36 eV, b2 fragment) as quantifier and m/z 315.17 (31 eV, b3 fragment) as qualifier."}, "[3]": {"settings": "Colon, Time 0, initial concentration EntF 31.82 µM"}, "[4]": {"settings": "Colon, Time 1, initial concentration EntF 31.82 µM"}, "[5]": {"settings": "Colon, Time 5, initial concentration EntF 31.82 µM"}, "[6]": {"settings": "Colon, Time 10, initial concentration EntF 31.82 µM"}, "[7]": {"settings": "Colon, Time 30, initial concentration EntF 31.82 µM"}, "[8]": {"settings": "Colon, Time 60, initial concentration EntF 31.82 µM"}, "[9]": {"settings": "Colon, Time 120, initial concentration EntF 31.82 µM"}, "[10]": {"settings": "Colon, Time 180, initial concentration EntF 31.82 µM"}},
  "data": [
    {"smiles": "CC(C)C[C@@H]1NC(=O)[C@H](CO)NC(=O)[C@H](Cc2ccccc2)NC(=O)[C@H](C(C)C)NC(=O)[C@@H](NC(=O)[C@H](CCC(=O)O)NC(=O)[C@@H](NC(=O)[C@H](CC(C)C)NC(=O)[C@H](CC(N)=O)NC(=O)[C@@H](N)CO)C(C)C)CSSC[C@@H](C(=O)N[C@@H](CC(N)=O)C(=O)O)NC(=O)[C@H](CCCCN)NC(=O)[C@H](CCCCN)NC(=O)[C@H](Cc2ccccc2)NC1=O", "note": "(single isomer, unassigned) [EntF*]", "values": [
      {"measurement": "tissue level at time molar at 96 h", "setting": "[1]; female, C57BL6, mouse, colon content, germ-free mice four days after oral gavage of 3 EntF-producing E. faecium strains (10^8 CFU/strain), LoD 1.9 pmol/g, LC1-MS1, mean ± SEM, n = 4, read-out: EntF* concentration in colon content", "result": "0.01 ± 0.0032", "unit": "nmol/g"},
      {"measurement": "EntF* in serum of the test group", "setting": "[1]; germ-free mice four days after oral gavage of EntF-producing E. faecium strains, LC1-MS1", "result": "detected"},
      {"measurement": "EntF* in feces, Tot. Av.", "setting": "[1]; gnotobiotic mice, feces, mean of 4 test mice", "result": 9.726, "unit": "pmol/g"},
      {"measurement": "EntF* serum concentration, Maximum Likelihood Function estimate ^µ", "setting": "[1]; gnotobiotic mice, serum, 4 test mice, censored at yL 80 pM", "result": 90.7384, "unit": "pM"},
      {"measurement": "EntF* serum concentration, average", "setting": "[1]; gnotobiotic mice, serum, average of the 3 test mice above LoD", "result": 97.3333, "unit": "pM"},
      {"measurement": "Stability of EntF* in Colon tissue", "setting": "[2]; Colon tissue", "result": "EntF* is stable in Colon tissue"},
      {"measurement": "EntF* Conc", "setting": "[2]; [3]", "result": 0.00, "unit": "µM"},
      {"measurement": "EntF* without metabolisation, Conc", "setting": "[2]; [3]", "result": 0.00, "unit": "µM"},
      {"measurement": "EntF*/EntF %", "setting": "[2]; [3]", "result": 0.00, "unit": "%"},
      {"measurement": "EntF* Conc", "setting": "[2]; [4]", "result": 0.0286, "unit": "µM"},
      {"measurement": "EntF*/EntF %", "setting": "[2]; [4]", "result": 0.09, "unit": "%"},
      {"measurement": "EntF* Conc", "setting": "[2]; [5]", "result": 0.20, "unit": "µM"},
      {"measurement": "EntF*/EntF %", "setting": "[2]; [5]", "result": 0.62, "unit": "%"},
      {"measurement": "EntF* Conc", "setting": "[2]; [6]", "result": 0.50, "unit": "µM"},
      {"measurement": "EntF*/EntF %", "setting": "[2]; [6]", "result": 1.56, "unit": "%"},
      {"measurement": "EntF* Conc", "setting": "[2]; [7]", "result": 0.94, "unit": "µM"},
      {"measurement": "EntF*/EntF %", "setting": "[2]; [7]", "result": 2.94, "unit": "%"},
      {"measurement": "EntF* Conc", "setting": "[2]; [8]", "result": 2.03, "unit": "µM"},
      {"measurement": "EntF*/EntF %", "setting": "[2]; [8]", "result": 6.39, "unit": "%"},
      {"measurement": "EntF* Conc", "setting": "[2]; [9]", "result": 3.15, "unit": "µM"},
      {"measurement": "EntF*/EntF %", "setting": "[2]; [9]", "result": 9.89, "unit": "%"},
      {"measurement": "EntF* Conc", "setting": "[2]; [10]", "result": 5.17, "unit": "µM"},
      {"measurement": "EntF*/EntF %", "setting": "[2]; [10]", "result": 16.25, "unit": "%"},
      {"measurement": "formation rate of EntF* (from EntF) in colonic tissues", "setting": "[2]; mouse colon tissue homogenate (0.6 mg/mL protein) 500 μL + 400 μL Krebs-Henseleit buffer pH 7.4 + 100 μL 1 mg/mL EntF, 37 °C, aliquots 0-180 min, LC1-MS1, mean ± SEM, n = 7", "result": "0.11 ± 0.01", "unit": "% min^−1"},
      {"measurement": "Formation rate, Colon tissue, Average", "setting": "[2]; mouse colon tissue homogenate, Krebs-Henseleit buffer pH 7.4, 37 °C, LC1-MS1, average of X1-X7", "result": 0.11, "unit": "%*min-1"},
      {"measurement": "Formation rate, Colon tissue", "setting": "[2]; mouse colon tissue homogenate, Krebs-Henseleit buffer pH 7.4, 37 °C, LC1-MS1, replicate X1", "result": 0.0898, "unit": "%*min-1"},
      {"measurement": "Formation rate, Colon tissue", "setting": "[2]; mouse colon tissue homogenate, Krebs-Henseleit buffer pH 7.4, 37 °C, LC1-MS1, replicate X2", "result": 0.1249, "unit": "%*min-1"},
      {"measurement": "Formation rate, Colon tissue", "setting": "[2]; mouse colon tissue homogenate, Krebs-Henseleit buffer pH 7.4, 37 °C, LC1-MS1, replicate X3", "result": 0.1563, "unit": "%*min-1"},
      {"measurement": "Formation rate, Colon tissue", "setting": "[2]; mouse colon tissue homogenate, Krebs-Henseleit buffer pH 7.4, 37 °C, LC1-MS1, replicate X4", "result": 0.0981, "unit": "%*min-1"},
      {"measurement": "Formation rate, Colon tissue", "setting": "[2]; mouse colon tissue homogenate, Krebs-Henseleit buffer pH 7.4, 37 °C, LC1-MS1, replicate X5", "result": 0.1065, "unit": "%*min-1"},
      {"measurement": "Formation rate, Colon tissue", "setting": "[2]; mouse colon tissue homogenate, Krebs-Henseleit buffer pH 7.4, 37 °C, LC1-MS1, replicate X6", "result": 0.0824, "unit": "%*min-1"},
      {"measurement": "Formation rate, Colon tissue", "setting": "[2]; mouse colon tissue homogenate, Krebs-Henseleit buffer pH 7.4, 37 °C, LC1-MS1, replicate X7", "result": 0.0903, "unit": "%*min-1"}
    ]}
  ]
}
